According to patent publication US11534412B2, “Application of totarol and pharmaceutical composition containing totarol” (Emergopharm SP. Z O.O. SP.K., priority 2017, dated 2022):
Where two headings read alike, the source gives them in different places.

Key:
[1] = test system: human vaginal epithelial cells of the A-431 cell line; format: cell-based
Description: Test of totarol impact on the human vaginal epithelial cells of the A-431 cell line (ATCC® The study was carried out using the following test: Annexin-V-Fluos (Roche, Mannheim, Germany), during incubation for 2, 8 and 24 hours, under in vitro conditions, according to the instructions of the test's manufacturer. The totarol sample was prepared by dissolution of 3 mg of totarol in 3 ml of 100% DMI.
The cultivation time for the A-431 cell line was 20 days. The culture was carried out at a temperature of 37° C. in an atmosphere containing 10% CO2, on a DMEM culture medium (Institute of Immunology and Experimental Therapy PAS [IITD PAN], Wroclaw), with an addition of 10% of foetal bovine serum (FBS, Sigma-Aldrich). The culture fluid were being replaced regularly every 48 hours. After achieving a decantable growth or the so-called “monolayer”, the cells were passaged using (for approx. 10 min) 0.25% trypsin (Sigma-Aldrich). Then, the obtained tissue line was passed to 24-well plates (TPP), adjusting their densities to the value of 5×10^5 per well. The tissue culture of the studied lines was carried out for 3 next days on the surface of sterile microscope slides placed on the bottom of a 24-well plate, until a decantable growth was obtained on the surface of the microscope slides. After obtaining the so-called “monolayer”, the cells were washed with PBS without Ca^2+ and Mg^2+ ions (IITD PAN, Wroclaw), and poured with 700 µl of fresh DMEM medium with 10% FBS, together with 300 μl of properly prepared totarol. • Negative control: 1000 μl of fresh DMEM medium with 10% FBS. • Solvent control: 700 μl of fresh DMEM medium with 10% FBS+300 μl of DMI solvent. • Necrosis positive control: 900 μl of fresh DMEM medium with 10% FBS+100 μl H2O2 (30%). The proper examination using the Annexin-V-Fluos test causes green staining of apoptotic cells. […] This dye has an ability to penetrate the cell's interior freely only through a damaged cellular membrane, staining the interior red. In the case of a lack of damages of the cellular membrane, propidium iodide remains on its surface, forming a characteristic red “halo” around the cell. After a corresponding study time, i.e. 2, 8, and 24 hours, the culture fluid was removed, the content was washed with PBS (pre-heated to a temperature of 37° C.) twice. Then, 100 μl of the fluorescent stains mixture including in the Annexin-V-Fluos (Roche) kit were applied on the surface of each microscope slide (placed in a culture well) and additionally, Hoechst stain was used (cellular DNA staining). The staining procedure was carried out according to the manufacturer's recommendations. The culture together with the stains applied onto it were incubated at room temperature for 20 min. The intensity of light emitted by the cells stained with the individual stains was observed using a fluorescent microscope at the wavelength of 494-520 nm, using 400× magnification. The cells were counted in five visual fields, and the results were averaged. The reliability of the tests carried out is confirmed by hydrogen peroxide used as a positive control, causing a distinct necrosis process already after 2 hours of incubation. Data analyses were carried out on the basis of the average number of cells from five visual fields in the individual times (2, 8, and 24 h). The results are presented in Table 6 and in the form of photographic documentation—FIGS. 1, 2, 3, 4.

[2] = Solubility in water; format: physicochemical

Alive cells ([1]; human, 2 h, 0.3 mg/mL): 100
Alive cells ([1]; human, 8 h, 0.3 mg/mL): 100
Alive cells ([1]; human, 24 h, 0.3 mg/mL): 100
solubility in water [2]: complete lack of solubility in water
Structure (SMILES): CC(C)c1c(O)ccc2c1CC[C@H]1C(C)(C)CCC[C@]21C [Totarol, totarol]
apoptosis and necrosis in epithelial cells, photographic documentation [1]: No apoptosis and necrosis
apoptotic and necrotic impact on human vaginal epithelial A-431 cells [1]: lack of apoptotic and necrotic impact
Apopt. cells ([1]; human, 2 h, 0.3 mg/mL): 0
Necrot. cells ([1]; human, 2 h, 0.3 mg/mL): 0
Apopt. cells ([1]; human, 8 h, 0.3 mg/mL): 0
Necrot. cells ([1]; human, 8 h, 0.3 mg/mL): 0
Apopt. cells ([1]; human, 24 h, 0.3 mg/mL): 0
Necrot. Cells ([1]; human, 24 h, 0.3 mg/mL): 0
